# Experimental data published in patent publication US20240101528A1, “SUBSTITUTED PYRAZOLO PIPERIDINE CARBOXYLIC ACIDS” (BAYER AKTIENGESELLSCHAFT, priority 2020, published 2024).
# Counter-ions that a name gives are not always drawn.
# Experiments:
# [1] = Pharmacokinetic parameters following intravenous administration in rats; format: in vivo, male Wistar rats
# Procedure: (§1) B-5. Determination of Pharmacokinetic Parameters Following Intravenous and Oral Administration
# (§2) The pharmacokinetic parameters of the compounds according to the invention were determined in male Wistar rats and/or in female beagles and/or in cynomolgus monkeys and/or in male CD-1 mice. Intravenous administration in the case of mice and rats was carried out by means of a species-specific plasma/DMSO formulation, and in the case of dogs and monkeys by means of a water/PEG400/ethanol formulation. In all species, oral administration of the dissolved substance was performed via gavage, based on a water/PEG400/ethanol formulation.
# (§3) An internal standard (which may also be a chemically unrelated substance) was added to the samples of the compounds of the invention, calibration samples and qualifiers, and there followed protein precipitation by means of acetonitrile in excess. Addition of a buffer solution matched to the LC conditions, and subsequent vortexing, was followed by centrifugation at 1000 g. The supernatant was analysed by LC-MS/MS using C18 reversed-phase columns and variable mobile phase mixtures. The substances were quantified via the peak heights or areas from extracted ion chromatograms of specific selected ion monitoring experiments.
# (§4) The plasma concentration/time plots determined were used to calculate the pharmacokinetic parameters such as AUC, Cmax, t1/2 (terminal half-life), F (bioavailability), MRT (mean residence time) and CL (clearance), by means of a validated pharmacokinetic calculation program.
# (§5) Since the substance quantification was performed in plasma, it was necessary to determine the blood/plasma distribution of the substance in order to be able to adjust the pharmacokinetic parameters correspondingly. For this purpose, a defined amount of substance was incubated in K3 EDTA whole blood of the species in question in a rocking roller mixer for 20 min. After centrifugation at 1000 g, the plasma concentration was measured (by means of LC-MS/MS; see above) and determined by calculating the ratio of the Cblood/Cplasma value.
# [2] = target: T1, recombinant guanylate cyclase reporter cell line (Rattus norvegicus, UniProt P20595); assay: Effect on a recombinant guanylate cyclase reporter cell line; format: cell-based; details: for MEC: minimum effective concentration; for EC50: half maximal effective concentration
# T1 construct: expressed in transfected cells
# T1 sequence (P20595 1-619): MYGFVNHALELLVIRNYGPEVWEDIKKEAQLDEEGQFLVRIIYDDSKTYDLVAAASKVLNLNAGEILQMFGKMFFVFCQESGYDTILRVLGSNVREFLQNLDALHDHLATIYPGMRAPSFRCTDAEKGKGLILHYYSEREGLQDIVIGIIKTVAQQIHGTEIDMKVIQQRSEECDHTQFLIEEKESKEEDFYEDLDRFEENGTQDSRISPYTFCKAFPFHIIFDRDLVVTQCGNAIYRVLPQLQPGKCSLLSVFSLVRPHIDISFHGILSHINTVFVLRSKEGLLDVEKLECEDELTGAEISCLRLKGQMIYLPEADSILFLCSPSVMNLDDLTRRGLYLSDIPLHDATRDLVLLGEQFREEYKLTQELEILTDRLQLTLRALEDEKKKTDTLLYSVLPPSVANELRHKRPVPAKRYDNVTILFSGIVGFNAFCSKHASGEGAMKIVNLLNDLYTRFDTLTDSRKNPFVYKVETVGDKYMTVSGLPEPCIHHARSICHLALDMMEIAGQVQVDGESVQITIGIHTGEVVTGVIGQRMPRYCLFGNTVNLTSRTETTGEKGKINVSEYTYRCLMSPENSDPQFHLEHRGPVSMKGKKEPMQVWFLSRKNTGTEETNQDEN
# T1 sequence (P19686 1-690 partner): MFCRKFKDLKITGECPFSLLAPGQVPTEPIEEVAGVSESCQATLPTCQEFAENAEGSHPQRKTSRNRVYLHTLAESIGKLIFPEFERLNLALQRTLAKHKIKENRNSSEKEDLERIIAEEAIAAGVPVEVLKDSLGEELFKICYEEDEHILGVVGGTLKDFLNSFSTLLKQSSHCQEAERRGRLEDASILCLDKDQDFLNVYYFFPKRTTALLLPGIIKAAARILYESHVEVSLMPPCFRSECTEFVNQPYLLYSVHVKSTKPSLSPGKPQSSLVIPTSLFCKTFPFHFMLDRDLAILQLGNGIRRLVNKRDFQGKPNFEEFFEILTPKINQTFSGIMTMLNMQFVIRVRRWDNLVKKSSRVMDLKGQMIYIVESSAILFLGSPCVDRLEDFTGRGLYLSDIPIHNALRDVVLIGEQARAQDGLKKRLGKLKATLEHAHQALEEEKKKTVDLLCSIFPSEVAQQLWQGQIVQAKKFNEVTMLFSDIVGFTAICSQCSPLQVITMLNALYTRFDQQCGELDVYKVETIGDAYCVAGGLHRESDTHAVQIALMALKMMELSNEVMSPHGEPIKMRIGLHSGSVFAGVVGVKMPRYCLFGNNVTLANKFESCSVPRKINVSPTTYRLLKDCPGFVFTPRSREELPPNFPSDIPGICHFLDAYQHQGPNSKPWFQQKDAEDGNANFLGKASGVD
# Procedure: B-1. Effect on a Recombinant Guanylate Cyclase Reporter Cell Line
# The cellular activity of the compounds according to the invention was determined using a recombinant guanylate cyclase reporter cell line, as described in F. Wunder et al., Anal. Biochem. 339, 104-112 (2005).
# [3] = Pharmacokinetic parameters following oral administration in rats; format: in vivo, male Wistar rats; details: for F: bioavailability
# Procedure: as §1, §2, §3, §4, §5
AUCnorm ([1]; intravenous administration),MEC [2],AUCnorm [3],F [3],EC50 [2],Compound,other results
7.23 kg·h/L,1.6 nM,4.04 kg·h/L,56.1%,–,"O=C(O)c1cnn(C2CCCN(c3cc(Cl)ccc3-c3ccc(N4CCN(CC(F)(F)F)CC4)cc3)C2)c1C(F)F (single isomer, unassigned; enantiomer 2) [Example 21, 1-[1-[5-Chloro-2-[4-[4-(2,2,2-trifluoroethyl)piperazin-1-yl]phenyl]phenyl]-3-piperidyl]-5-(difluoromethyl)pyrazole-4-carboxylic acid (Enantiomer 2)]",–
1.40 kg·h/L,0.3 nM,0.84 kg·h/L,59.9%,–,"CCCN1CCN(c2ccc(-c3ccc(Cl)cc3N3CCCC(n4ncc(C(=O)O)c4C(F)F)C3)cc2)CC1 (single isomer, unassigned; enantiomer 2) [Example 5, 1-{1-[4-Chloro-4′-(4-propylpiperazin-1-yl)[biphenyl]-2-yl]piperidin-3-yl}-5-(difluoromethyl)-1H-pyrazole-4-carboxylic acid hydrochloride (Enantiomer 2)]",–
0.77 kg·h/L,–,0.63 kg·h/L,81.8%,–,"O=C(O)c1cnn(-c2cccc(-c3cc(Cl)ccc3-c3ccc(N4CCN(CC5CC5)CC4)cc3)n2)c1C(F)(F)F [174 (WO2012/058132), reference compound]",MRT [3]: 8.41 h
3.09 kg·h/L,0.3 nM,0.25 kg·h/L,8.01%,1.9 nM,"O=C(O)c1cnn(C2CCCN(c3cc(Cl)ccc3-c3ccc(N4CCN(CC(F)F)CC4)cc3)C2)c1C(F)F (single isomer, unassigned; enantiomer 2) [Example 19, 1-[1-{4-Chloro-4′-[4-(2,2-difluoroethyl)piperazin-1-yl][biphenyl]-2-yl}piperidin-3-yl]-5-(difluoromethyl)-1H-pyrazole-4-carboxylic acid hydrochloride (Enantiomer 2)]","MRT ([1]; male, Wistar, rat, plasma, intravenous administration): 5.66 h; clearance ([1]; male, Wistar, rat, plasma, intravenous administration, read-out: CLplasma (converted)): 5.33 mL/min/kg; half-life ([1]; male, Wistar, rat, plasma, intravenous administration, read-out: t½ (converted)): 254 min; MRT ([3]; male, Wistar, rat, plasma, read-out: MRT): 7.46 h; half-life ([3]; male, Wistar, rat, plasma, read-out: t½ (converted)): 279 min"
2.29 kg·h/L,1.6 nM,2.11 kg·h/L,91.7%,–,"O=C(O)c1cnn(C2CCCN(c3cc(Cl)ccc3-c3ccc(N4CCN(CC(F)(F)F)CC4)cc3)C2)c1C(F)F (single isomer, unassigned; enantiomer 1) [Example 20, 1-[1-[5-Chloro-2-[4-[4-(2,2,2-trifluoroethyl)piperazin-1-yl]phenyl]phenyl]-3-piperidyl]-5-(difluoromethyl)pyrazole-4-carboxylic acid (Enantiomer 1)]",Half live in comparison to example 174 in WO 2012/058132 ([1]; after i.v. application): longer; mean residence time (MRT) in comparison to example 174 in WO 2012/058132 ([1]; after i.v. application): longer
–,30.0 nM,–,–,71 nM,"O=C(O)c1cnn(C2CCCN(c3cc(Cl)ccc3-c3ccc(N4CCN(C5COC5)CC4)cc3)C2)c1C(F)F (single isomer, unassigned; enantiomer 1) [Example 42, 1-(1-{4-Chloro-4′-[4-(oxetan-3-yl)piperazin-1-yl][biphenyl]-2-yl}piperidin-3-yl)-5-(difluoromethyl)-1H-pyrazole-4-carboxylic acid hydrochloride (Enantiomer 1)]",–
1.23 kg·h/L,<0.3 nM,0.70 kg·h/L,58.2%,–,"O=C(O)c1cnn(C2CCCN(c3cc(Cl)ccc3-c3ccc(N4CCN(CC5CC5)CC4)cc3)C2)c1C(F)F (single isomer, unassigned; enantiomer 2) [Example 11, 1-(1-{4-Chloro-4′-[4-(cyclopropylmethyl)piperazin-1-yl] [biphenyl]-2-yl}piperidin-3-yl)-5-(difluoromethyl)-1H-pyrazole-4-carboxylic acid hydrochloride (Enantiomer 2)]",–
–,2.0 nM,–,–,11.3 nM,"O=C(O)c1cnn(C2CCCN(c3cc(Cl)ccc3-c3ccc(N4CCN(C(=O)[C@H]5C[C@H]5F)CC4)cc3)C2)c1C(F)F (single isomer, unassigned; stereoisomer 2) [Example 35]",–
–,1.0 nM,–,–,5.1 nM,"O=C(O)c1cnn(C2CCCN(c3cc(Cl)ccc3-c3ccc(N4CCN(CC5CC5(F)F)CC4)cc3)C2)c1C(F)F (single isomer, unassigned; diastereomer 4) [Example 31, 1-{1-[4-Chloro-4′-(4-{[2,2-difluorocyclopropyl]methyl}piperazin-1-yl)[biphenyl]-2-yl]piperidin-3-yl}-5-(difluoromethyl)-1H-pyrazole-4-carboxylic acid hydrochloride (Diastereomer 4)]",–
–,10.0 nM,–,–,61.5 nM,"CC(C)(C)CN1CCN(c2ccc(-c3ccc(Cl)cc3N3CCCC(n4ncc(C(=O)O)c4C(F)F)C3)cc2)CC1 (single isomer, unassigned; enantiomer 1) [Example 12, 1-[(1-{4-Chloro-4′-[4-(2,2-dimethylpropyl)piperazin-1-yl][biphenyl]-2-yl}piperidin-3-yl]-5-(difluoromethyl)-1H-pyrazole-4-carboxylic acid hydrochloride (Enantiomer 1)]",–
